Results published in paper PMC12040169 (PLOS Biology, 2025).

Test: in vitro
Settings: human, hela cells, % viability

SMILES	viability at 28.5 h, 10 µM
Cc1nn(C)cc1C(C)NC(=O)C1(c2ccccc2F)CCOCC1 (centres unmarked) [CBK281594]	80.8%
CC1CCN(CCNC(=O)CCc2nc3ccc(Cl)cc3[nH]2)CC1 [CBK281599]	88.7%
Cc1cccc2c3c([nH]c12)CCN(C(=O)C(C)N1CCOCC1)C3 (centres unmarked) [CBK281600]	89.2%
CC(NC(=O)CCN1CCN(C)CC1)c1cc2cc(Cl)ccc2o1 (centres unmarked) [CBK281601]	102%
Cn1nccc1-c1cc(C(=O)NC2(C)CCC2)c2ccccc2n1 [CBK281605]	92.7%
CC1(NC(=O)Cn2c(C(F)(F)F)nc3ccccc32)CCC1 [CBK281606]	82.2%
Cc1nc(CN2CCN(C(=O)C3C4CCCCC43)CC2)cs1 (centres unmarked) [CBK281607]	93.8%
CCc1nc2cc(NC(=O)Cn3cc(C)cn3)ccc2n1CC [CBK281608]	84.9%
CCc1nc2cc(NC(=O)CCCn3ccnc3C)ccc2n1CC [CBK281609]	101%
CC1(NC(=O)CC2C(=O)NCCN2Cc2cccc(F)c2)CCC1 (centres unmarked) [CBK281611]	80.9%
CC(NC(=O)C1CC(=O)OC1(C)C)c1ccc2c(c1)CCCO2 (centres unmarked) [CBK281613]	88.4%
Cc1cc(C)n(C2CCN(Cc3c(C)nc4ccccn34)CC2)n1 [CBK281614]	83.4%
Cn1nccc1CN1CCC(Oc2ccccc2F)CC1 [CBK281618]	92%
Cc1nccn1CC1CCCN(Cc2nc3ccccc3[nH]2)C1 (centres unmarked) [CBK281619]	83.3%
Cc1cc(C)n(C2CCN(Cc3nc4ccccc4[nH]3)CC2)n1 [CBK281620]	103%
Cc1ccc(OCCn2cncc2-c2cn(C)nc2C)cc1 [CBK281626]	93.7%
Cc1nn(CCNC(=O)C2CC(=O)N(CC(C)C)C2)c(C)c1C (centres unmarked) [CBK281630]	88%
O=C(NC1CCNC1)c1ccc(F)cc1 (centres unmarked) [CBK281632]	87.2%
Cc1ccnn1CCNC(=O)C(C)Cc1cccs1 (centres unmarked) [CBK281633]	109%
Cc1nc2ccc(NC(=O)CCn3nc(C)c(Cl)c3C)cc2s1 [CBK281634]	106%
Cc1ccc2oc(C(=O)N(CCO)CCc3ccncc3)c(C)c2c1 [CBK281642]	106%

SMILES	viability at 28.5 h, 10 µM
O=C(c1cc2c(F)cccc2[nH]1)N(CCO)CCc1ccncc1 [CBK281644]	98.3%
Cc1cc(C)n(CC(C)NC(=O)C(c2ccccc2)N2CCCC2)n1 (centres unmarked) [CBK281645]	82.1%
Cc1nccn1CCCNC(=O)c1cccc(N2CCCCC2)c1 [CBK281646]	91.4%
Fc1cccc(-c2nc3c(s2)CN(C2CCOCC2)CC3)c1 [CBK281647]	87%
Cc1c(-c2cc(C(=O)NC(C)C3CC4CCC3C4)on2)cnn1C (centres unmarked) [CBK281651]	92.8%
Cc1c(-c2cc(C(=O)NC(C)C3CC4CCC3C4)no2)cnn1C (centres unmarked) [CBK281653]	91.3%
CC(NC(=O)c1ccccc1Cn1cncn1)C1CC2CCC1C2 (centres unmarked) [CBK281654]	85.8%
Cc1cccc2c3c([nH]c12)CCN(C(=O)[C@@H]1C[C@@H]2C=C[C@H]1C2)C3 [CBK281656]	93.6%
C[C@]12CN(C(=O)c3ccccc3)C[C@H]1NC(=O)c1ccccc1C2=O [CBK281657]	102%
C[C@]12CN(C(=O)C3CC3)C[C@H]1NC(=O)c1ccccc1C2=O [CBK281660]	102%
C=C1C2(C(=O)NCCn3nc(C)c(Cl)c3C)CCC(C2)C1(C)C (centres unmarked) [CBK281661]	81.5%
CC(NC(=O)C1CC(=O)N(c2cccc(F)c2)C1)C1CC2CCC1C2 (centres unmarked) [CBK281664]	99.9%
O=C(NCCCc1nc2cc(F)ccc2[nH]1)[C@@H]1C[C@@H]2C=C[C@H]1C2 [CBK281665]	103%
CC(=O)NCc1ccc(-c2cc(CN(C)C)n(C)n2)cc1 [CBK281667]	99.1%
CCC(=O)NCc1ccc(-c2cc(CN(C)C)n(C)n2)cc1 [CBK281668]	103%
Cc1c(C)n(C)c2ccc(C(=O)NCCC(=O)N3CCOCC3)cc12 [CBK281669]	65.8%
Cc1cc(C)n(CC(C)NC(=O)c2cc(C(F)(F)F)nn2C)n1 (centres unmarked) [CBK281671]	92.2%
COCC(=O)N1CCc2nc(-c3ccc(F)cc3)sc2C1 [CBK281673]	107%
CN1CCCC(Cc2cc(-c3ccccc3)no2)(C(=O)N(C)C)C1 (centres unmarked) [CBK281674]	102%
CC1CCCCN1CC(C)(C)NC(=O)c1cc(C2CC2)on1 (centres unmarked) [CBK281676]	100%
O=C(O)C1(Cc2ccc(-c3cccs3)cc2)CCNC1 (centres unmarked) [CBK281679]	90.8%

SMILES	viability at 28.5 h, 10 µM
Cc1nn(CCC(=O)NC2CCOc3ccccc32)c(C)c1Cl (centres unmarked) [CBK281684]	96.7%
CCN1C(=O)c2ccccc2C(=O)[C@@]2(C)CN(C(C)=O)C[C@@H]12 [CBK281686]	89.7%
O=C(O)C1(Cc2ccc(-c3ccccc3)cc2)CCNC1 (centres unmarked) [CBK281687]	91.2%
O=C(O)C1(Cc2cccc(-c3cccs3)c2)CCCNC1 (centres unmarked) [CBK281688]	90.5%
CC(=O)N(C)[C@H]1CC[C@]2(CC1)CNC(=O)c1cc(C)ccc1O2 [CBK281690]	101%
Cn1cc2c(n1)CC1CCC2N1C(=O)c1ccc(F)c(F)c1 (centres unmarked) [CBK281691]	92.6%
CC(C)C(=O)NCCn1nc(-c2ccccc2F)cc1CN(C)C [CBK281693]	91.4%
Cc1ccc(-c2cc(CC3(C(=O)N(C)C)CCCN(C)C3)on2)cc1 (centres unmarked) [CBK281695]	89.3%
NCCn1cc(-c2cccc(F)c2)c(C2CCOCC2)n1 [CBK281696]	91.1%
CCN1CCc2cc(-c3cncn3CC(=O)NC(C)(C)C)ccc21 [CBK281698]	94.8%
CC1Cc2cc(-c3cncn3CC(=O)NC(C)(C)C)ccc2N1C (centres unmarked) [CBK281699]	77.3%
CC1CCN(C(C)Cn2cncc2-c2cnn(C)c2)CC1 (centres unmarked) [CBK281703]	95.5%
CCn1cc(-c2cncn2CCCC(C)(C)CO)cn1 [CBK281704]	88.3%
Cc1cc(CN(C)Cc2ccc3c(c2)n(C)c(=O)n3C)n[nH]1 [CBK281705]	101%
Cc1cc(CN(C)Cc2c(-c3ccccc3)nn(C)c2C)n[nH]1 [CBK281707]	88.8%
CCn1cc(-c2cncn2CCn2nc(C)c(Cl)c2C)cn1 [CBK281708]	87.9%
CC(CN1CCCC1)NC(=O)c1ccc2c(c1)ncn2C (centres unmarked) [CBK281715]	102%
Cc1cc(CN(C)Cc2c(C)nc3c(C)cccn23)n[nH]1 [CBK281716]	99.1%
CN(CC1(C)COC1)C(=O)CCc1nc2ccccc2[nH]1 [CBK281719]	88.8%
CN(CC1(C)COC1)C(=O)c1cn2cc(Cl)ccc2n1 [CBK281721]	109%
CN(CC1(C)COC1)C(=O)C(c1ccc(F)cc1)N(C)C (centres unmarked) [CBK281722]	107%

SMILES	viability at 28.5 h, 10 µM
Cc1ccc2c(c1)cc(C(=O)N(C)CC1(C)COC1)n2C [CBK281723]	86.4%
CC1CCN(c2ccc(C(C)NC(=O)Cn3cccn3)cc2)CC1 (centres unmarked) [CBK281725]	86.1%
CCC1C(=O)NCCN1C(=O)c1cc2cc(C)ccc2n1C (centres unmarked) [CBK281729]	110%
Cc1nn(C)cc1C(C)NC(=O)c1cn2cccc(C)c2n1 (centres unmarked) [CBK281731]	92.1%
COc1ccc2c(CN(C)Cc3cc(C)[nH]n3)cn(C)c2c1 [CBK281734]	103%
C[C@H]1CN(C(=O)c2cc(C3CC3)no2)[C@@H](C)CN1Cc1ccco1 [CBK281736]	106%
CC(Cn1cncc1-c1cnn(C)c1)Oc1ccccc1Cl (centres unmarked) [CBK281737]	105%
Cc1nn(C)cc1-c1cncn1C(C)(C)CN1CCC(C)CC1 [CBK281740]	108%
CN(C)CCC(c1ccccc1)n1cncc1-c1cnn(C)c1 (centres unmarked) [CBK281742]	93.6%
Cc1nccn1C(C(=O)NCC1(C)COC1)c1ccccc1 (centres unmarked) [CBK281743]	97.9%
Cc1ccc(-c2cc(C(=O)NCC3(C)COC3)no2)cc1 [CBK281744]	93.8%
CC1(CNC(=O)c2ccc(N3CCCCC3)cc2)COC1 [CBK281746]	105%
CC1(CNC(=O)c2cn3cc(Cl)ccc3n2)COC1 [CBK281748]	91.4%
Cc1cccn2cc(C(=O)NCCCn3cccn3)nc12 [CBK281749]	75.3%
CC1(CNC(=O)c2ccccc2Cn2cccn2)COC1 [CBK281750]	89.4%
CC1(CNC(=O)c2cc(-c3cccc(F)c3)no2)COC1 [CBK281751]	87.7%
CN(C)C(C(=O)NCC1(C)COC1)c1ccc(Cl)cc1 (centres unmarked) [CBK281753]	102%
Cc1cc(C)n(-c2ccc(C(=O)NCC3(C)COC3)cc2)n1 [CBK281756]	92.1%
Cc1cc(C)n(C(C)C(=O)N(C)CCn2ccnc2C)n1 (centres unmarked) [CBK281759]	88.1%
Cc1ccccc1OCCCn1cncc1-c1cnn(C)c1 [CBK281762]	91.1%
